{
  "source": "patent US9980976B2",
  "about": "“Use of REDD1 inhibitors to dissociate therapeutic and adverse atrophogenic effects of glucocorticoid receptor agonists” (Northwestern University, priority 2015, dated 2018)",
  "key": {"LC3": {"tested_on": "LC3", "experiment": "Autophagy in mouse epidermis (LC3-I to LC3-II conversion, Beclin-1)", "type": "in vivo", "conditions": "FA-treated mouse skin", "experimental": "In accordance, we observed in FA-treated skin the conversion of light chain 3 (LC3) from its free form (LC3-I) to a membrane-bound state (LC3-II), a key step that initiates autophagy in mammalian cells (Klionsky et al, 2012). LC3-I to LC3-II conversion reached its maximum 8 h after FA treatment and paralleled with the increase of another autophagy marker Beclin-1, highest REDD1 expression and strongest repression of mTOR activity (FIGS. 2C, D).\nThe whole-cell protein extracts were prepared using RIPA buffer with protease and phosphatase inhibitor cocktails (Thermo Scientific, Thermo Fisher Scientific Inc., Waltham, Mass., USA), resolved by SDS-PAGE on 4-20% gels and transferred to Odyssey nitrocellulose membranes (LI-COR Biosciences, Lincoln, Neb., USA). Membranes were blocked with Odyssey Blocking Buffer and incubated with primary antibodies overnight at 4° C., followed by IRDye® secondary antibodies (LI-COR Biosciences). LI-COR Odyssey Imager was used for the band visualization. Equal loading and adequate transfer to the membranes were verified by staining with Ponceau S (Sigma-Aldrich) and with anti-GAPDH (Sigma-Aldrich) antibody. We used Abs against: REDD1 (Proteintech Group, Inc., Chicago, Ill.), LC3B, phospho-rpS6Ser240/244, phospho-4E-BP1Thr37/46, phospho-GRSer211 (Cell Signaling Technology, Inc.), and GR (H-300 or M-20, Santa Cruz Biotechnology, Inc.)."}, "[1]": {"tested_on": "glucocorticoid-responsive genes in murine epidermis", "experiment": "Genome-wide expression profiling of murine epidermis (microarray, Q-PCR validation)", "type": "in vivo, mouse", "conditions": "FA", "experimental": "To investigate the global role of REDD1 in GR signaling, we performed genome-wide expression profiling of the epidermis of REDD1 and wild-type mice treated with vehicle (control) or FA using Illumina mouse whole-genome gene array (GEO Submission GSE59151). Gene expression was measured 24 h post-FA application, when both TA and TR are usually fully developed (Wu et al, 2004). Differential expression was identified based on the adjusted P-value threshold of 0.05.\nRNA samples were checked for quality and integrity with the Agilent 2100 bioanalyzer and used for microarray analysis. RNA amplification, labeling, and hybridization with the Mouse Whole-Genome Gene Expression BeadChips MouseRef-8 v2.0 (Illumina) were performed at the Genomics Core Facility at the Center for Genetic Medicine at Northwestern University according to Illumina protocols.\nMicroarray processing was performed using the Limma package (Smyth, 2005), using the neqc function to perform background subtraction using the negative control probes, and quantile normalization using both positive and negative control probes. Differentially expressed probes were identified using the linear model implemented in Limma, applying an adjusted P-value threshold of 0.05. Q-PCR and microarray based gene expression values were compared using linear Pearson correlation.\nGene ontology analysis was performed using the DAVID Bioinformatics resource tool (Huang et al, 2009a,b), submitting differentially expressed probes from each experiment, against the probe background of MouseRef 8. DAVID performs a hypergeometric test to identify overrepresented GO terms in a list of differentially expressed probes. Results are presented for categories with greater than or equal to threefold enrichment and P=0.01."}, "[2]": {"tested_on": "CD34+ follicular SCs and p63-positive progenitors", "experiment": "CD34+ follicular epithelial stem cells and p63+ progenitors in mouse skin (immunostaining)", "type": "in vivo", "conditions": "chronic FA treatment", "description": "Sections of formalin-fixed, paraffin-embedded skin and ORCs were stained with hematoxylin and eosin (H&E), Masson's trichrome to evaluate the effect on dermis and collagen fibers (Sheehan & Hrapchack, 1980), and with antibodies against BrdU (BD Biosciences, San Jose, Calif., USA), keratins 1, 5, and 10, loricrin (Covance, Princeton, N.J.), phospho-mTORSer2448 (Cell Signaling Technology, Inc., Danvers, Mass., USA), REDD1 (Proteintech Group, Inc, Chicago, Ill.), p63 (eBioscience, San Diego, Calif., USA), and CD34 (Abcam, Cambridge, Mass., USA).\nThe numbers of BrdU+, p63+, and total number of basal keratinocytes were evaluated in 10 fields of view in each skin/ORC sample under the microscope. Number of BrdU+ and p63+ cells is presented as percent of total number of basal keratinocytes. The number of CD34+ hair follicles among 10 randomly selected hair follicles per skin sample was evaluated under the microscope."}, "GR": {"tested_on": "GR", "experiment": "GR phosphorylation at Ser211 (Western blot) in HaCaT and CEM cells", "type": "cell-based, human", "conditions": "1 uM FA", "experimental": "FIG. 15. Rapamycin inhibits GR nuclear translocation and phosphorylation. A. GR nuclear translocation in HaCaT cells was determined by immunofluorescence as described in Materials and Methods. Cells on coverslips were pretreated with solvent (Control) or Rapamycin (1 uM×6 h) and treated with 1 uM FA for indicated time. B. GR nuclear translocation in CEM cells was determined by Western blot analysis of nuclear protein extracts. Membranes were probed with anti-HDAC-1 antibodies to verify equal protein loading and transfer. C, D. GR phosphorylation in HaCaT (C) and CEM (D) cells was determined by Western blot analysis of whole cell lysates. Membranes were probed with anti-GAPDH antibodies to verify equal protein loading and transfer.\nThe whole-cell protein extracts were prepared using RIPA buffer with protease and phosphatase inhibitor cocktails (Thermo Scientific, Thermo Fisher Scientific Inc., Waltham, Mass., USA), resolved by SDS-PAGE on 4-20% gels and transferred to Odyssey nitrocellulose membranes (LI-COR Biosciences, Lincoln, Neb., USA). Membranes were blocked with Odyssey Blocking Buffer and incubated with primary antibodies overnight at 4° C., followed by IRDye® secondary antibodies (LI-COR Biosciences). LI-COR Odyssey Imager was used for the band visualization. […]"}},
  "data": [
    {"molecule": "CC1(C)O[C@@H]2C[C@H]3[C@@H]4C[C@H](F)C5=CC(=O)C=C[C@]5(C)[C@@]4(F)[C@@H](O)C[C@]3(C)[C@]2(C(=O)CO)O1", "note": "[FA, fluocinolone acetonide]", "values": [
      {"measurement": "time of maximum LC3-I to LC3-II conversion after treatment", "setting": "LC3", "result": 8, "unit": "h"},
      {"measurement": "gene categories up-regulated (GO analysis)", "setting": "[1]; REDD1 KO keratinocytes", "result": "up-regulated genes related to autophagy, endosomes, and PI3K signaling"},
      {"measurement": "Cd74 and H2-Ab1 expression (Q-PCR array validation)", "setting": "[1]; wild-type and REDD1 KO epidermis", "result": "similarly down-regulated"},
      {"measurement": "gene categories inhibited (GO analysis)", "setting": "[1]; wild-type but not REDD1 KO skin", "result": "inhibited genes related to DNA replication"},
      {"measurement": "decrease in number of p63+ basal keratinocytes", "setting": "[2]; REDD1 KO mice", "result": 20, "unit": "%"},
      {"measurement": "hair follicles CD34 positive", "setting": "[2]; REDD1 KO mice", "result": 40, "unit": "%"},
      {"measurement": "decrease in number of p63-positive progenitors in the basal layer of epidermis", "setting": "[2]; wild-type mice", "result": "~40", "unit": "%"},
      {"measurement": "hair follicles CD34 positive", "setting": "[2]; wild-type mice", "result": 5, "unit": "%"},
      {"measurement": "GR phosphorylation at Ser211", "setting": "GR", "result": "induced quick GR phosphorylation"}
    ]}
  ]
}
